# Reference: US8148371B2, “Adenine compound and use thereof” (Dainippon Sumitomo Pharma Co., Ltd., priority 2002, dated 2012)
# Like-named read-outs stand apart in the source and are kept apart here. Marks after values point to notes of the source that are not given here.
# Columns and labels:
# [1] = system: plasma esterase; settings: rat plasma, 37° C., 15 minutes
# Method: The compound of the present invention is added to the serum solution, and the mixture is incubated at 37±0.5° C. for 5 minutes to 2 hours. By quantitatively analyzing at the definite interval the amount of the compound of the present invention remaining in the serum solution with HPLC (high performance liquid chromatography), etc., the constant of quenching velocity calculated and the half life is calculated.
# The serum herein means the supernatant fraction obtained by excluding hemocytes and blood coagulation factor from blood by centrifugation, etc. The serum diluted with buffer, etc. can be used.
# The metabolic stability of the test compound was presented by the residual amount (%) per the concentration of pre-metabolization.
# [2] = system: cells of rat spleen; test: cells; type: cell-based, SD rat; settings: 24 h, read-out: Minimum effective concentration (interferon inducing activity)
# [3] = system: cells of mouse spleen; test: cells; type: cell-based, C3H/HeJ mouse; settings: for minimal effective concentration: Mus musculus, 24 h, read-out: Minimum effective concentration (interferon inducing activity)
# [4] = Metabolic stability on liver S9 of rat; settings: 37° C.
# Method: The compound of the present invention is added to liver S9 solution, and the mixture is incubated at 37±0.5° C. for 5 minutes to 2 hours. By quantitatively analyzing at the definite interval the amount of the compound of the present invention remaining in the liver S9 solution with HPLC (high performance liquid chromatography), etc., the constant of quenching velocity is calculated and the half life is calculated.
# The reaction on river S9 of a rat was carried out on a 96-well plate by using a robot for screening by Tecan Company. S9 solution was prepared by adding to 10 ml of liver S9 of a rat, 20 ml of 250 mM Kpi (pH 7.4) and 20 ml of deionized water. Cofactor solution was prepared by dissolving NADPH (220 mg) in deionized water (40.5 ml) to give finally a 6 mM solution. IS (Internal Standard) solution was prepared by adding 300 μL of IS solution (1 mM DMSO solution) to 30 ml of acetonitrile solution (100 times dilution). The test compound (1 μM DMSO solution) was dissolved in an incubator at 37° C., 35 μL of it was poured into each well of a 96-well plate (24 samples/plate and then, plates (a sample plate, a 96 well-plate for dilution, deep well plates for reaction and recovering, a plate for extraction of the solid phase) and the test samples (S9 solution, Cofactor solution, IS (Internal Standard) solution, Stop solution, acetonitrile for elution) were set to the specified position in the booth of the robot. The reaction started (the concentration of the test compound was 1 μM) and the mixture was incubated at 37° C. under stirring. The solid phase was extracted and at the same time the internal standard for analysis was added. To the recovered sample (200 μL/well) was added 50 μL of acetonitrile per each well and to 2 plates of FALCON Deep well were poured 100 μL of the solution per well. By subjecting to the LC/MS analysis, the chromatogram of the test sample and the internal standard were described and the peak area was calculated. And then, the stability (residual rate after reaction) was calculated by the internal standard method.
# [5] = rat liver S9, test compound 10 μM (*)
# [6] = rat liver S9, test compound 1 μM
SMILES,Residual rate ([1]; test compound 10 μM) [%],minimal effective concentration [2] [µM],minimal effective concentration [3] [µM],"Residual rate [4, 6] [%]",other results
"CCCCOc1nc(N)c2nc(O)n(Cc3ccc(N4CCC(C(=O)OCC)CC4)nc3)c2n1 [Example 24, 2-Butoxy-8-hydroxy-9-{6-(4-ethoxycarbonyl-1-piperidyl)-3-pyridylmethyl}adenine]",7,0.0003,< 0.001,–,–
"COC(=O)OCCNc1nc(N)c2nc(O)n(Cc3ccc(C)nc3)c2n1 [Example 34, 8-Hydroxy-2-(2-methoxycarbonyloxyethylamino)-9-{(6-methyl-3-pyridyl)methyl}adenine]",11,–,0.1,–,"Residual rate [4, 5]: 1* %"
"Nc1nc(SC2CCOC2=O)nc2c1nc(O)n2Cc1ccccc1 (stereo not shown) [Example 59, 9-Benzyl-2-(2-butyrolactino)thio-8-hydroxyadenine]",0,–,–,7,Minimum effective concentration (interferon inducing activity) [3]: 0.1 µM
"CCOC(=O)CC(=O)CSc1nc(N)c2nc(O)n(Cc3ccccc3)c2n1 [Example 58, 9-Benzyl-2-(ethoxycarbonylmethylcarbonylmethyl)thio-8-hydroxyadenine]",0,–,0.1,–,–
"Cc1ccc(Cn2c(O)nc3c(N)nc(NCCO)nc32)cn1 [Comparative example 10, 8-Hydroxy-2-(2-hydroxyethylamino)-9-{(6-methyl-3-pyridyl)methyl}adenine, reference compound]",–,–,1,–,–
"CCCCOc1nc(N)c2nc(O)n(Cc3ccc(C(=O)O)o3)c2n1 [Comparative example 3, 2-Butoxy-8-hydroxy-9-(5-carboxyfurfuryl)adenine, reference compound]",–,0.01,0.1,–,–
"CCNC(=O)CSc1nc(N)c2nc(O)n(Cc3ccccc3)c2n1 [Example 50, 9-Benzyl-2-(ethylcarbamoylmethyl)thio-8-hydroxyadenine]",–,–,0.1,7,–
"CCCCOc1nc(N)c2nc(O)n(Cc3cccc(C(=O)OCCO)c3)c2n1 [Example 6, 2-Butoxy-8-hydroxy-9-{3-(2-hydroxyethoxycarbonyl)benzyl}adenine]",14,–,< 0.001,–,–
"Nc1nc(SCCC(=O)O)nc2c1nc(O)n2Cc1ccccc1 [Comparative example 13, 9-Benzyl-8-hydroxy-2-(2-calboxylethyl)thioadenine, reference compound]",–,0.3,10,–,–
"CCCCOc1nc(N)c2nc(O)n(Cc3ccc(C(=O)OC(C)C)o3)c2n1 [Example 16, 2-Butoxy-8-hydroxy-9-(5-isopropoxycarbonylfurfuryl)adenine]",0,–,0.003,0,–
"CCCCOc1nc(N)c2nc(O)n(Cc3cccc(C(=O)O)c3)c2n1 [Comparative example 1, 2-Butoxy-8-hydroxy-9-(3-carboxybenzyl)adenine, reference compound]",–,0.01,0.003,–,–
"CCOC(=O)Cc1nc(N)c2nc(O)n(Cc3ccccc3)c2n1 [Example 30, 9-Benzyl-2-ethoxycarbonylmethyl-8-hydroxyadenine]",0,0.01,0.01,4,–
"COC(=O)Cc1nc(N)c2nc(O)n(Cc3ccccc3)c2n1 [Example 29, 9-Benzyl-8-hydroxy-2-methoxycarbonylmethyladenine]",0,0.01,0.01,–,–
"CCCCOc1nc(N)c2nc(O)n(Cc3ccc(CC(=O)O)cc3)c2n1 [Comparative example 6, 2-Butoxy-8-hydroxy-9-(4-carboxymethylbenzyl)adenine, reference compound]",–,0.01,0.03,–,–
"COC(=O)OCCOc1nc(N)c2nc(O)n(Cc3ccc(C)nc3)c2n1 [Example 38, 2-{2-(Methoxycarbonyloxy)ethoxy}-8-hydroxy-9-{(6-methyl-3-pyridyl)methyl}adenine]",2,–,0.01,–,–
"CCCCOc1nc(N)c2nc(O)n(Cc3ccc(CC(=O)OCCN4CCOCC4)cc3)c2n1 [Example 73, 2-Butoxy-8-hydroxy-9-{4-(2-morpholinoethoxycarbonyl)methylbenzyl}adenine]",–,0.0003,–,0,Residual rate ([1]; test compound 1 μM (*)): 4* %
"COC(=O)CCSc1nc(N)c2nc(O)n(Cc3ccccc3)c2n1 [Example 54, 9-Benzyl-8-hydroxy-2-(2-methoxycarbonylethyl)thioadenine]",0,0.01,0.1,–,–
"CCCCOc1nc(N)c2nc(O)n(Cc3cccc(CC(=O)O)c3)c2n1 [Comparative example 5, 2-Butoxy-8-hydroxy-9-(3-carboxymethylbenzyl)adenine, reference compound]",–,0.01,0.1,–,–

SMILES,Residual rate ([1]; test compound 10 μM) [%],minimal effective concentration [2] [µM],minimal effective concentration [3] [µM],"Residual rate [4, 6] [%]",other results
"CCCCOc1nc(N)c2nc(O)n(Cc3cccc(CC(=O)OC)c3)c2n1 [Example 19, 2-Butoxy-8-hydroxy-9-(3-methoxycarbonylmethylbenzyl)adenine]",–,0.0003,< 0.001,–,–
"CCCCOc1nc(N)c2nc(O)n(Cc3ccc(N4CCCC(C(=O)OCC)C4)nc3)c2n1 (stereo not shown) [Example 25, 2-Butoxy-8-hydroxy-9-{6-(3-ethoxycarbonyl-1-piperidyl)-3-pyridylmethyl}adenine]",16,–,0.003,–,–
"Nc1nc(SCC(=O)OCC(F)(F)F)nc2c1nc(O)n2Cc1ccccc1 [Example 48, 9-Benzyl-2-(2,2,2-trifluoroethoxycarbonylmetyl)thio-8-hydroxyadenine]",0,–,–,0,Minimum effective concentration (interferon inducing activity) [3]: 0.3 µM
"CCCCOc1nc(N)c2nc(O)n(Cc3ccc(C(=O)OC)nc3)c2n1 [Example 17, 2-Butoxy-8-hydroxy-9-{(6-methoxycarbonyl-3-pyridyl)methyl}adenine]",0,0.001,–,28,–
"CCCCOc1nc(N)c2nc(O)n(Cc3cccc(CC(=O)OCCF)c3)c2n1 [Example 70, 2-Butoxy-8-hydroxy-9-{3-(2-fluoroethoxycarbonyl)methylbenzyl}adenine]",–,0.001,–,16,Residual rate ([1]; test compound 1 μM (*)): 0* %
"Cc1ccc(Cn2c(O)nc3c(N)nc(OCCO)nc32)cn1 [Comparative example 11, 8-Hydroxy-2-(2-hydroxyethoxy)-9-{(6-methyl-3-pyridyl)methyl}adenine, reference compound]",–,–,0.1,–,–
"COC(=O)COc1nc(N)c2nc(O)n(Cc3ccccc3)c2n1 [Example 64, 9-Benzyl-8-hydroxy-2-methoxycarbonylmethoxyadenine]",–,0.003,–,2,Residual rate ([1]; test compound 1 μM (*)): 0* %
"Nc1nc(SCC(=O)O)nc2c1nc(O)n2Cc1ccccc1 [Comparative example 12, 9-Benzyl-8-hydroxy-2-(calboxylmethyl)thioadenine, reference compound]",–,0.3,10,–,–
"Nc1nc(CC(=O)O)nc2c1nc(O)n2Cc1ccccc1 [Comparative example 8, 9-Benzyl-2-carboxymethyl-8-hydroxyadenine, reference compound]",–,3,10,–,–
"COC(=O)CNc1nc(N)c2nc(O)n(Cc3ccc(C)nc3)c2n1 [Example 32, 8-Hydroxy-2-methoxycarbonylmethylamino-9-{(6-methyl-3-pyridyl)methyl}adenine]",0,–,0.01,–,–
"CCCCOc1nc(N)c2nc(O)n(Cc3cccc(C(=O)OCCN(C)C)c3)c2n1 [Example 7, 2-Butoxy-8-hydroxy-9-{3-(2-dimethylaminoethoxycarbonyl)benzyl}adenine]",1,–,< 0.001,–,–
"COC(=O)CSc1nc(N)c2nc(O)n(Cc3ccccc3)c2n1 [Example 40, 9-Benzyl-8-hydroxy-2-(methoxycarbonylmethyl)thioadenine]",0,0.01,0.01,–,–
"CCOC(=O)C(C)Sc1nc(N)c2nc(O)n(Cc3ccccc3)c2n1 (stereo not shown) [Example 53, 9-Benzyl-8-hydroxy-2-(1-ethoxycarbonylethyl)thioadenine]",0,–,0.1,2,–
"CCCCOc1nc(N)c2nc(O)n(Cc3ccc(CC(=O)OCCO)cc3)c2n1 [Example 71, 2-Butoxy-8-hydroxy-9-{4-(2-hydroxyethoxycarbonyl)methylbenzyl}adenine]",–,0.0003,–,0,Residual rate ([1]; test compound 1 μM (*)): 0* %
"COC(=O)c1cccc(CSc2nc(N)c3nc(O)n(Cc4ccccc4)c3n2)c1 [Example 103, 9-Benzyl-8-hydroxy-2-[(3-methoxycarbonylbenzyl)thio]adenine]",–,0.01,–,7,Residual rate ([1]; test compound 1 μM (*)): 6* %
"CCCCOc1nc(N)c2nc(O)n(Cc3ccc(CC(=O)OCC)cc3)c2n1 [Example 68, 2-Butoxy-8-hydroxy-9-(4-ethoxycarbonylmethylbenzyl)adenine]",–,0.0003,–,13,Residual rate ([1]; test compound 1 μM (*)): 0* %
"CC(=O)OCCNc1nc(N)c2nc(O)n(Cc3ccc(C)nc3)c2n1 [Example 33, 2-(2-Acetoxyethylamino)-8-hydroxy-9-{(6-methyl-3-pyridyl)methyl}adenine]",–,–,0.1,–,"Residual rate [4, 5]: 2* %"
"Nc1nc(SCC(=O)N2CCCCC2)nc2c1nc(O)n2Cc1ccccc1 [Example 51, 9-Benzyl-8-hydroxy-2-(1-piperidinocarbonylmethyl)thioadenine]",–,–,0.1,0,–
